Test results taken from patent publication US7910751B2, “Heterocyclidene acetamide derivative” (Mochida Pharmaceutical Co., Ltd., priority 2005, dated 2011).

These molecules were tested against T1, human TRPV1 (Homo sapiens, UniProt Q8NER1) (assay: Measurement of capsaicin-induced Ca influx in human TRPV1 transformed CHO cell line using FDSS-6000). Settings: concentration at which the capsaicin concentration-reaction curve is shifted two times to the right, human TRPV1 transformed CHO cells.
T1 construct: expressed in transfected cells; host or cells: CHO-K1
T1 sequence (Q8NER1 whole entry): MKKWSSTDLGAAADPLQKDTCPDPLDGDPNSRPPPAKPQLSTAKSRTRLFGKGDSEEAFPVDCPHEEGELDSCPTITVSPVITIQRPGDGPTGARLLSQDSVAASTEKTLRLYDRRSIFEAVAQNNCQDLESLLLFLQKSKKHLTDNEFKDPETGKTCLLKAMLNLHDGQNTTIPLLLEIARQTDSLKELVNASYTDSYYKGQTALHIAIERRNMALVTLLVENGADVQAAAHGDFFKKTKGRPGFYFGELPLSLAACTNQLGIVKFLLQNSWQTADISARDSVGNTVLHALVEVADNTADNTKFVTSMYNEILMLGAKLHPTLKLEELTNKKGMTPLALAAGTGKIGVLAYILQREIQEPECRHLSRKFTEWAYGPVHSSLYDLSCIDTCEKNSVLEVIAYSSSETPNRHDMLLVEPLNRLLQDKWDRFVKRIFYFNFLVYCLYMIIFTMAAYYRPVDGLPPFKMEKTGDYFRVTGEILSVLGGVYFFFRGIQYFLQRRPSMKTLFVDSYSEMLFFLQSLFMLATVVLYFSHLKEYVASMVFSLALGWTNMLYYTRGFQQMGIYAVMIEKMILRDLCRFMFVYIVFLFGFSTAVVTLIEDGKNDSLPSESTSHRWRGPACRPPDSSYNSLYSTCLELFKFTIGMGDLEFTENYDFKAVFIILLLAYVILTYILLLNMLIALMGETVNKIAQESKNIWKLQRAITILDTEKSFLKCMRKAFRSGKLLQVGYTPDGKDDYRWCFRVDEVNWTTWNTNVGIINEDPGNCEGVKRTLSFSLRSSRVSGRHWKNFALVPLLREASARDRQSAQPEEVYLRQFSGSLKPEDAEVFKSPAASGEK
Type: cell-based
For `O=C(/C=C1\CCCOc2cc(C(F)(F)F)ccc21)Nc1cccc(-c2cnc3ccccc3n2)c1` [Example 28, (E)-2-(8-trifluoromethyl-3,4-dihydrobenzo[b]oxepin-5(2H)-ylidene)-N-(3-(quinoxalin-2-yl)phenyl)acetamide], the “A2 VALUE” was “B (compounds having an A2 value of 100 nM or more are represented by B)”.
In the case of `CCCCC(=O)N1CCC/C(=C\C(=O)Nc2cccc3c2CC(O)CC3)c2ccc(C(F)(F)F)cc21` (centres unmarked) [Example 190, (E)-2-(8-trifluoromethyl-1-pentanoyl-1,2,3,4-tetrahydro-5H-benzo[b]azepin-5-ylidene)-N-(7-hydroxy-5,6,7,8-tetrahydronaphthalen-1-yl)acetamide], the “A2 VALUE” is reported as “A (compounds of the present invention having an A2 value of less than 100 nM are represented by A)”.
For `Cc1sc2cnccc2c1NC(=O)/C=C1\CCOc2cc(C(F)(F)F)ccc21` [Example 204, (E)-2-(7-trifluoromethyl-chroman-4-ylidene)-N-(2-methylthieno[2,3-c]pyridin-3-yl)acetamide], the “A2 VALUE” was “A (compounds of the present invention having an A2 value of less than 100 nM are represented by A)”.
In the case of `O=C(/C=C1\CCCOc2cc(C(F)(F)F)ccc21)Nc1ccc2c(c1)C(CO)CCC2` (centres unmarked) [Example 179, (E)-2-(8-trifluoromethyl-3,4-dihydrobenzo[b]oxepin-5(2H)-ylidene)-N-(8-hydroxymethyl-5,6,7,8-tetrahydronaphthalen-2-yl)acetamide], the “A2 VALUE” is reported as “A (compounds of the present invention having an A2 value of less than 100 nM are represented by A)”.
For `O=C(/C=C1\CCN(C2CCCCC2)c2cc(C(F)(F)F)ccc21)Nc1ccc2cccnc2c1` [Example 97, (E)-2-(7-trifluoromethyl-2,3-dihydro-1-cyclohexylquinolin-4(1H)-ylidene)-N-(quinolin-7-yl)acetamide], the “A2 VALUE” was “A (compounds of the present invention having an A2 value of less than 100 nM are represented by A)”.
With `O=C(/C=C1\CCCOc2cc(C(F)(F)F)ccc21)Nc1ccc2c(c1)C(=O)OC2` [Example 24, (E)-2-(8-trifluoromethyl-3,4-dihydrobenzo[b]oxepin-5(2H)-ylidene)-N-(1,3-dihydro-1-oxoisobenzofuran-6-yl)acetamide] the “A2 VALUE” was “A (compounds of the present invention having an A2 value of less than 100 nM are represented by A)”.
For `O=C(/C=C1\CCCOc2cc(C(F)(F)F)ccc21)Nc1ccc2c(c1)OCCCO2` [Example 142, (E)-2-(8-trifluoromethyl-3,4-dihydrobenzo[b]oxepin-5(2H)-ylidene)-N-(3,4-dihydro-2H-benzo[b]dioxepin-7-yl)acetamide], the “A2 VALUE” was “A (compounds of the present invention having an A2 value of less than 100 nM are represented by A)”.
`CN1CCC/C(=C\C(=O)Nc2cccc3ccc(O)cc23)c2ccc(C(F)(F)F)cc21` [Example 198, (E)-2-(1-methyl-8-trifluoromethyl-1,2,3,4-tetrahydro-5H-benzo[b]azepin-5-ylidene)-N-(7-hydroxynaphthalen-1-yl)acetamide] was tested, and the “A2 VALUE” was “A (compounds of the present invention having an A2 value of less than 100 nM are represented by A)”.
`CC(C)(C)CC(=O)N1CC/C(=C\C(=O)Nc2ccc3cccnc3c2)c2ccc(C(F)(F)F)cc21` [Example 76, (E)-2-(1-(3,3-dimethylbutanoyl)-7-trifluoromethyl-2,3-dihydroquinolin-4(1H)-ylidene)-N-(quinolin-7-yl)acetamide] was tested, and the “A2 VALUE” was “A (compounds of the present invention having an A2 value of less than 100 nM are represented by A)”.
In the case of `O=C(/C=C1\CCN(C(=O)C2CCCC2)c2cc(C(F)(F)F)ccc21)Nc1cccc2c1CC(O)CC2` (centres unmarked) [Example 82, (E)-2-(1-cyclopentanecarbonyl-7-trifluoromethyl-2,3-dihydroquinolin-4(1H)-ylidene)-N-(7-hydroxy-5,6,7,8-tetrahydronaphthalen-1-yl)acetamide], the “A2 VALUE” is reported as “A (compounds of the present invention having an A2 value of less than 100 nM are represented by A)”.
With `O=C(/C=C1\CCOc2cc(C(F)(F)F)c(F)cc21)Nc1cccc2c1CC(O)CN2` (centres unmarked) [Example 215, (E)-2-(6-fluoro-7-trifluoromethyl-chroman-4-ylidene)-N-(3-hydroxy-1,2,3,4-tetrahydroquinolin-5-yl)acetamide] the “A2 VALUE” was “A (compounds of the present invention having an A2 value of less than 100 nM are represented by A)”.
In the case of `O=C(/C=C1\CCCOc2cc(C(F)(F)F)ccc21)Nc1cccc2c1CC(O)CC2` (centres unmarked) [Example 62, (E)-2-(8-trifluoromethyl-3,4-dihydrobenzo[b]oxepin-5-(2H)-ylidene)-N-(7-hydroxy-5,6,7,8-tetrahydronaphthalen-1-yl)acetamide], the “A2 VALUE” is reported as “A (compounds of the present invention having an A2 value of less than 100 nM are represented by A)”.
In the case of `O=C(/C=C1\CCCOc2cc(C(F)(F)F)ccc21)Nc1ccc2sc(CO)nc2c1` [Example 59, (E)-2-(8-trifluoromethyl-3,4-dihydrobenzo[b]oxepin-5(2H)-ylidene)-N-(2-hydroxymethyl-1,3-benzothiazolo-5-yl)acetamide], the “A2 VALUE” is reported as “A (compounds of the present invention having an A2 value of less than 100 nM are represented by A)”.
`O=C(/C=C1\CCCOc2cc(C(F)(F)F)ccc21)Nc1cccc2c1CC(O)CN2` (centres unmarked) [Example 68, (E)-2-(8-trifluoromethyl-3,4-dihydrobenzo[b]oxepin-5(2H)-ylidene)-N-(3-hydroxy-1,2,3,4-tetrahydroquinolin-5-yl)acetamide] was tested, and the “A2 VALUE” was “A (compounds of the present invention having an A2 value of less than 100 nM are represented by A)”.
With `O=C(/C=C1\CCCOc2cc(C(F)(F)F)ccc21)NCc1ccc2c(c1)OCCO2` [Example 32, (E)-2-(8-trifluoromethyl-3,4-dihydrobenzo[b]oxepin-5(2H)-ylidene)-N-((2,3-dihydrobenzo[b][1,4]dioxin-6-yl)methyl)acetamide] the “A2 VALUE” was “B (compounds having an A2 value of 100 nM or more are represented by B)”.
With `O=C(/C=C1\CCCOc2cc(C(F)(F)F)ccc21)NCc1nnc2ccccn12` [Example 40] the “A2 VALUE” was “B (compounds having an A2 value of 100 nM or more are represented by B)”.
For `COc1ccc2cccc(NC(=O)/C=C3\CCCOc4cc(C(F)(F)F)ccc43)c2c1` [Example 129, (E)-2-(8-trifluoromethyl-3,4-dihydrobenzo[b]oxepin-5(2H)-ylidene)-N-(7-methoxynaphthalen-1-yl)acetamide], the “A2 VALUE” was “B (compounds having an A2 value of 100 nM or more are represented by B)”.
In the case of `O=C(/C=C1\CCCOc2cc(C(F)(F)F)ccc21)NCc1ccc2c(c1)CCO2` [Example 35, (E)-2-(8-trifluoromethyl-3,4-dihydrobenzo[b]oxepin-5(2H)-ylidene)-N-((2,3-dihydrobenzofuran-5-yl)methyl)acetamide], the “A2 VALUE” is reported as “B (compounds having an A2 value of 100 nM or more are represented by B)”.
`CCCCC(=O)N1CC/C(=C\C(=O)Nc2ccc3cccnc3c2)c2ccc(C(F)(F)F)cc21` [Example 50, (E)-2-(7-trifluoromethyl-2,3-dihydro-1-pentanoylquinolin-4(1H)-ylidene)-N-(quinolin-7-yl)acetamide] was tested, and the “A2 VALUE” was “A (compounds of the present invention having an A2 value of less than 100 nM are represented by A)”.
With `O=C(/C=C1\CCCOc2cc(C(F)(F)F)ccc21)Nc1cccc2c1CC(O)CO2` (centres unmarked) [Example 183, (E)-2-(8-trifluoromethyl-3,4-dihydrobenzo[b]oxepin-5(2H)-ylidene)-N-(3-hydroxy-chroman-5-yl)acetamide] the “A2 VALUE” was “A (compounds of the present invention having an A2 value of less than 100 nM are represented by A)”.
With `CCCCC(=O)N1CC/C(=C\C(=O)Nc2cccc3c2CC(O)C(=O)N3)c2ccc(C(F)(F)F)cc21` (centres unmarked) [Example 107, (E)-2-(7-trifluoromethyl-2,3-dihydro-1-pentanoylquinolin-4(1H)-ylidene)-N-(3,4-dihydro-3-hydroxy(1H)quinolin-2-on-5-yl)acetamide] the “A2 VALUE” was “A (compounds of the present invention having an A2 value of less than 100 nM are represented by A)”.
With `O=C(/C=C1\CCN(C(=O)C2CCC(F)C2)c2cc(C(F)(F)F)ccc21)Nc1cccc2c1CC(O)CC2` (centres unmarked) [Example 88, (E)-2-(1-(3-fluorocyclopentanecarbonyl)-7-trifluoromethyl-2,3-dihydroquinolin-4(1H)-ylidene)-N-(7-hydroxy-5,6,7,8-tetrahydronaphthalen-1-yl)acetamide] the “A2 VALUE” was “A (compounds of the present invention having an A2 value of less than 100 nM are represented by A)”.
`O=C(/C=C1\CCOc2cc(OC(F)(F)C(F)F)ccc21)Nc1cccc2c1CC(O)CC2` (centres unmarked) [Example 212, (E)-2-(7-(1,1,2,2-tetrafluoroethoxy)-chroman-4-ylidene)-N-(7-hydroxy-5,6,7,8-tetrahydronaphthalen-1-yl)acetamide] was tested, and the “A2 VALUE” was “A (compounds of the present invention having an A2 value of less than 100 nM are represented by A)”.
With `O=C(/C=C1\CCCOc2cc(C(F)(F)F)ccc21)Nc1ccc2c(c1)C(=O)NC2` [Example 166, (E)-2-(8-trifluoromethyl-3,4-dihydrobenzo[b]oxepin-5(2H)-ylidene)-N-(2,3-dihydro-isoindol-1-on-6-yl)acetamide] the “A2 VALUE” was “A (compounds of the present invention having an A2 value of less than 100 nM are represented by A)”.
In the case of `O=C(/C=C1\CCCOc2cc(C(F)(F)F)ccc21)Nc1ccc2cccnc2c1` [Example 13, (E)-2-(8-trifluoromethyl-3,4-dihydrobenzo[b]oxepin-5(2H)-ylidene)-N-(quinolin-7-yl)acetamide], the “A2 VALUE” is reported as “A (compounds of the present invention having an A2 value of less than 100 nM are represented by A)”.
With `O=C(/C=C1\CCN(C(=O)C2CC(F)(F)C2)c2cc(C(F)(F)F)ccc21)Nc1cccc2c1CC(O)CC2` (centres unmarked) [Example 118, (E)-2-(1-(3,3-difluorocyclobutanecarbonyl)-7-trifluoromethyl-2,3-dihydroquinolin-4(1H)-ylidene)-N-(7-hydroxy-5,6,7,8-tetrahydronaphthalen-1-yl)acetamide] the “A2 VALUE” was “A (compounds of the present invention having an A2 value of less than 100 nM are represented by A)”.
